Test results taken from article PMC11256326, “Discovery of Heparin Mimetic, Potent, and Selective Inhibitors of Human Clotting Factor XIIIa” (ACS Omega, 2024).

How the values were obtained:
thrombin [1] = biological target: T1, thrombin (Homo sapiens, UniProt P00734); test: chromogenic substrate hydrolysis assay, thrombin; assay type: biochemical; conditions: for IC50: Tris-HCl pH 7.4, 37 °C, > values from highest concentration used; for thrombin HS (Hill slope) / thrombin ΔY (efficacy): pH 7.4, 37 °C
T1 construct: Human plasma proteins such as FXIIIa, thrombin, factor Xa, and factor XIa; purchased Haematologic Technologies; host or cells: human plasma
From the text: (§1) One of the motivations for targeting anion-binding sites on human FXIIIa was to achieve selectivity in inhibition over closely related enzymes such as other clotting serine proteases or other transglutaminases and cysteine proteases.
(§2) Human plasma proteins such as FXIIIa, thrombin, factor Xa, and factor XIa were procured from Haematologic Technologies. Recombinant human TG-2 was sourced from Tocris Bioscience. Their activities were validated according to the supplier’s instructions. Chromogenic substrates for thrombin and factor Xa were acquired from Biomedica Diagnostics, while the factor XIa chromogenic substrate (S-2366) was obtained from Diapharma. Dithiothreitol, N,N-dimethylcasein, and dansylcadaverine were purchased from Sigma Aldrich. Stock solutions of thrombin and factor XIa were prepared in 50 mM Tris-HCl buffer, pH 7.4, containing 150 mM sodium chloride, 0.1% PEG8000, and 0.02% Tween80. The stock solution of factor Xa was prepared in 20 mM Tris-HCl buffer, pH 7.4, containing 100 mM sodium chloride, 0.1% PEG8000, 2.5 mM CaCl2, and 0.02% Tween80. The stock solutions of FXIIIa and rTG-2 were prepared in 50 mM Tris-HCl, 1 mM CaCl2, 100 mM sodium chloride, 0.02% Tween80, 0.1% PEG8000, and 2 mg/mL dimethylcasein. Papain and its chromogenic substrate (N-α-benzoyl-L-arginyl-4-nitroanilide) were obtained from Sigma Aldrich. Papain was prepared in 50 mM Tris-HCl buffer, pH 7.4, containing 100 mM NaCl, 100 mM DTT, 2.5 mM CaCl2, 0.1% PEG8000, and 0.02% Tween80. Human plasma for coagulation assays was obtained from George King Bio-Medica for the clotting assays. Thromboplastin-D (PT reagent), APTT reagent containing ellagic acid, and 0.025 M solution of CaCl2 were obtained from Thermo Fisher Scientific. Results were reproduced at least three times.
(§3) The inhibitory potential of various heparin mimetics against other clotting factors, including thrombin, factor Xa, and factor XIa, was also examined using established chromogenic substrate hydrolysis assays.[47],[50] For instance, in each well of a 96-well microplate containing either 85 or 185 μL of 20–50 mM Tris-HCl buffer (pH 7.4), supplemented with 100–150 mM NaCl, 0.1% PEG8000, and 0.02% Tween80 at either 25 or 37 °C, 5 μL of the inhibitor (or high purity water) and 5 μL of the enzyme were added. The final concentrations of the enzymes were 6 nM (thrombin), 1.09 nM (factor Xa), and 0.8 nM (factor XIa). After a 5 min incubation period, 5 μL of Spectrozyme TH (final concentration: 0.050 mM), Spectrozyme FXa (0.125 mM), or factor XIa substrate (0.35 mM) was swiftly added, and the residual enzyme activity was gauged from the initial rate of increase in absorbance at λ405 nm. The relative residual enzyme activity was calculated as a function of the inhibitor concentration. If 50% or more of the enzyme was inhibited, the results were then plotted using eq 1 to determine the corresponding IC50 values.

thrombin [2] = test: chromogenic substrate hydrolysis assay, thrombin; assay type: biochemical, human
From the text: as §1, §2, §3

factor XIa = biological target: T2, factor XIa (Homo sapiens, UniProt P03951); test: chromogenic substrate hydrolysis assay, factor XIa; assay type: biochemical; conditions: for IC50: Tris-HCl pH 7.4, 37 °C, > values from highest concentration used, read-out: FXIa IC50; for FXIa HS (Hill slope) / FXIa ΔY (efficacy): pH 7.4, 37 °C
T2 construct: Human plasma proteins such as FXIIIa, thrombin, factor Xa, and factor XIa; purchased Haematologic Technologies; host or cells: human plasma
From the text: as §1, §2, §3

[3] = system: HEK-293 human embryonic kidney cells; test: cell viability, Alamar Blue, HEK-293; assay type: cell-based; conditions: HEK-293, 10 μM, 3 days
Procedure: (§4) To further evaluate the selectivity as well as the potential toxicity of inhibitors, we studied their effects on the clotting times of normal human plasma as well as their effects on the proliferation of three cell lines. On the one hand, the inhibitors’ effects on activated partial thromboplastin time (APTT) and prothrombin time (PT) were measured, as described earlier under in vitro conditions,[52]−[55] using variable concentrations (0–2000 μM) (Table 3). […] On the other hand, the antiproliferative properties of inhibitors 13 and 16 were evaluated in three cell lines of breast (MCF-7), intestine (CaCo-2), and kidney (HEK-293) (Figure 5B), as described earlier.[56] […] Overall, inhibitor 16 can be considered for further development as a potent, selective, and nontoxic inhibitor of human FXIIIa.
(§5) HEK-293 human embryonic kidney cells,[66] CaCo-2 heterogeneous human epithelial colorectal adenocarcinoma cells,[67] and MCF-7 human breast carcinoma cells[68] were treated as reported previously.[69],[70] […] Subsequently, fluorescence readings (λEx. = 560 nm and λEm. = 590 nm) were taken using the Synergy H1 multiplate reader (BioTek) to quantify cell numbers both in the absence (utilizing distilled water as a control) and the presence of inhibitors 13 and 16 (at a concentration of 10 μM; incubated for 3 days). […]

[4] = system: CaCo-2 heterogeneous human epithelial colorectal adenocarcinoma cells; test: cell viability, Alamar Blue, CaCo-2; assay type: cell-based; conditions: CaCo-2, 10 μM, 3 days
Procedure: as §4, §5

[5] = system: MCF-7 human breast carcinoma cells; test: cell viability, Alamar Blue, MCF-7; assay type: cell-based; conditions: MCF-7, 10 μM, 3 days
Procedure: as §4, §5

T2 sequence (P03951 388-625 limits assumed): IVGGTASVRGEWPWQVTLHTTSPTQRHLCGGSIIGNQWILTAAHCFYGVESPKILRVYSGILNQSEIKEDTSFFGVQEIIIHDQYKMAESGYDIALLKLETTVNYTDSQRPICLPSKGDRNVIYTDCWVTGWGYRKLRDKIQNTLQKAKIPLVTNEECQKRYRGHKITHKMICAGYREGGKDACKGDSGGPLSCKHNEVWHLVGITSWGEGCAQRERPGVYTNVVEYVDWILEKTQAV
T2 sequence (P03951 19-387 limits assumed): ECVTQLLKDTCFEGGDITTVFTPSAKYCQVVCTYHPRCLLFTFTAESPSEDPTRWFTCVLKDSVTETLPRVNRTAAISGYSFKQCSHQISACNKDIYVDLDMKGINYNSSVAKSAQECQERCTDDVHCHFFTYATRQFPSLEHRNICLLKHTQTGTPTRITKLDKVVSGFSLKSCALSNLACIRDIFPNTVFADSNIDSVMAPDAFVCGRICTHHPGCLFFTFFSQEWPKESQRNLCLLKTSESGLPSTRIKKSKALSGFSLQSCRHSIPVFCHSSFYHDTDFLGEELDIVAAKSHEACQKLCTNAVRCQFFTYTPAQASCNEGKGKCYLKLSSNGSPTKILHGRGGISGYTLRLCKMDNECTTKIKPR

selectivity index for FXIIIa over factor XIa (factor XIa) | thrombin HS (Hill slope) (thrombin [1]) | thrombin ΔY (efficacy) (thrombin [1]) | SMILES | IC50 (thrombin [1]) | selectivity index for FXIIIa over thrombin (thrombin [2]) | IC50 (factor XIa) | FXIa HS (Hill slope) (factor XIa) | FXIa ΔY (efficacy) (factor XIa) | effect on proliferation / cell viability [3] | effect on proliferation / cell viability [4] | effect on proliferation / cell viability [5]
 |  |  | COc1cc(-c2ccc(/N=N/c3ccc4c(S(=O)(=O)O)cc(S(=O)(=O)O)c(N)c4c3O)c(OC)c2)ccc1/N=N/c1ccc2c(S(=O)(=O)O)cc(S(=O)(=O)O)c(N)c2c1O [compound 19] | > 100 µM | at least 7 fold | 6.2 ± 0.4 µM | 1.5 ± 0.1 | 106 ± 3% |  |  | 
> 30 fold |  |  | Nc1c(/N=N/c2ccc(Nc3nc(Cl)nc(Nc4cccc(S(=O)(=O)O)c4)n3)cc2S(=O)(=O)O)c(S(=O)(=O)O)cc2c(O)c(/N=N/c3ccc(Nc4nc(Cl)nc(Nc5cccc(S(=O)(=O)O)c5)n4)cc3S(=O)(=O)O)ccc12 [compound 14] | > 500 µM |  | > 150 µM |  |  |  |  | 
 | 2.6 ± 1.0 | 62 ± 5% | Cc1cc(-c2ccc(/N=N/c3ccc4c(S(=O)(=O)O)cc(S(=O)(=O)O)c(N)c4c3O)c(C)c2)ccc1/N=N/c1ccc2c(S(=O)(=O)O)cc(S(=O)(=O)O)c(N)c2c1O [compound 18] |  |  |  | 1.9 ± 0.3 | 104 ± 3% |  |  | 
> 48 fold | 1.9 ± 1.5 | 43 ± 11% | Nc1c(S(=O)(=O)O)cc(Nc2ccc(Nc3nc(Cl)nc(Nc4ccccc4S(=O)(=O)O)n3)c(S(=O)(=O)O)c2)c2c1C(=O)c1ccccc1C2=O [compound 13] | 86.9 ± 33.6 µM | 28 fold | > 150 µM |  |  | does not significantly affect the proliferation | does not significantly affect the proliferation | does not significantly affect the proliferation

SMILES | selectivity index for FXIIIa over factor XIa (factor XIa) | thrombin HS (Hill slope) (thrombin [1]) | thrombin ΔY (efficacy) (thrombin [1]) | IC50 (thrombin [1]) | selectivity index for FXIIIa over thrombin (thrombin [2]) | IC50 (factor XIa) | FXIa HS (Hill slope) (factor XIa) | FXIa ΔY (efficacy) (factor XIa) | effect on proliferation / cell viability [3] | effect on proliferation / cell viability [4] | effect on proliferation / cell viability [5]
Nc1c(/N=N/c2ccc(S(=O)(=O)CCOS(=O)(=O)O)cc2)c(S(=O)(=O)O)cc2cc(S(=O)(=O)O)c(/N=N/c3ccc(S(=O)(=O)CCOS(=O)(=O)O)cc3)c(O)c12 [compound 16] | > 65 fold |  |  | > 500 µM | > 208 fold | > 150 µM |  |  | does not significantly affect the proliferation | does not significantly affect the proliferation | does not significantly affect the proliferation
